Results: ChEMBL document CHEMBL5608235, “Tricyclic Benzo[1,3]oxazinyloxazolidinones as Potent Antibacterial Agents against Drug-Resistant Pathogens” (J Med Chem, 2024)
Converted amounts (≈) assume the structure as drawn. The source made the active and inactive calls. The rule behind the calls is not given here.

What was measured:
Cell membrane [1] = assay: Disruption of cell membrane in methicillin resistant Staphylococcus aureus ATCC 33592 assessed as cell shrinkage at 1 ug/ml incubated for 6 hrs by Scanning electron microscopic analysis; format: cell membranes; details: dose 1.0 µg/ml
Staphylococcus aureus [2] = assay: Antibacterial activity against methicillin resistant Staphylococcus aureus clinical isolate 20-1 assessed as inhibition of bacterial growth incubated for 7 days by alamar blue assay; format: functional; details: clinical isolate 20-1, 168 h, time 7 day
Staphylococcus aureus [3] = assay: Inhibition of biofilm formation in methicillin resistant Staphylococcus aureus ATCC 33592 at 0.1 to 10 ug/ml incubated for 48 hrs by crystal violet staining based assay; format: functional, organism-based; details: dose 0.1-10 µg/ml
[4] = system: Staphylococcus epidermidis; assay: Antibacterial activity against methicillin resistant Staphylococcus epidermidis clinical isolate 20-2 assessed as inhibition of bacterial growth incubated for 7 days by alamar blue assay; format: functional; details: clinical isolate 20-2, 168 h, time 7 day
Enterococcus faecalis = assay: Antibacterial activity against Enterococcus faecalis ATCC29212 assessed as inhibition of bacterial growth incubated for 18 hrs by microdilution broth assay; format: functional
Staphylococcus aureus [5] = assay: (§1) Antibacterial activity against methicillin resistant Staphylococcus aureus ATCC 33592 infected in cyclophosphamide-induced immunosuppressed Kunming mouse assessed as increase in body weight at 50 mg/kg,po administration measured for 7 days; format: functional, organism-based; details: time 7.0 day
Staphylococcus aureus [6] = assay: Antibacterial activity against Linezolid resistant Staphylococcus aureus assessed as inhibition of bacterial growth incubated for 7 days by alamar blue assay; format: functional; details: 168 h, time 7 day
[7] = system: Mycobacterium tuberculosis; assay: Antibacterial activity against Mycobacterium tuberculosis H37Rv assessed as inhibition of bacterial growth incubated for 7 days by alamar blue assay; format: functional; details: 168 h, time 7 day
Staphylococcus aureus [8] = assay: Antibacterial activity against Linezolid resistant Staphylococcus aureus clinical isolate 20-1 assessed as inhibition of bacterial growth incubated for 7 days by alamar blue assay; format: functional; details: clinical isolate 20-1, 168 h, time 7 day
Staphylococcus aureus [9] = assay: as §1, with “reduction” for “increase”, “histopathological change in spleen” for “body weight”, “after 24 hrs by hematoxylin and eosin staining based microscopy” for “for 7 days”; format: functional, organism-based
Enterococcus = assay: Antibacterial activity against vancomycin resistant Enterococcus clinical isolate 20-1 assessed as inhibition of bacterial growth incubated for 7 days by alamar blue assay; format: functional; details: clinical isolate 20-1, 168 h, time 7 day
Bacillus subtilis = assay: Antibacterial activity against Bacillus subtilis ATCC6633 assessed as inhibition of bacterial growth incubated for 18 hrs by microdilution broth assay; format: functional
Staphylococcus aureus [10] = assay: Inhibition of biofilm formation in Staphylococcus aureus ATCC 29213 at 10 ug/ml incubated for 48 hrs by crystal violet staining based assay; format: functional, organism-based; details: dose 10.0 µg/ml
Cell membrane [11] = assay: Disruption of cell membrane in methicillin resistant Staphylococcus aureus ATCC 33592 assessed as cell surface perforation at 1 ug/ml incubated for 6 hrs by Scanning electron microscopic analysis; format: cell membranes; details: dose 1.0 µg/ml
[12] = Free AUC in BALB/c mouse at 10 mg/kg,po administration measured upto 24 hrs by LC-MS/MS analysis; format: ADME, organism-based; details: in vivo
Staphylococcus aureus [13] = assay: (§2) Antibacterial activity against methicillin resistant Staphylococcus aureus ATCC 33592 infected in cyclophosphamide-induced immunosuppressed Kunming mouse assessed as reduction in inflammatory cell infiltration in liver at 50 mg/kg,po administration measured after 24 hrs by hematoxylin and eosin staining based microscopy; format: functional, organism-based
[14] = system: Staphylococcus epidermidis; assay: Antibacterial activity against methicillin resistant Staphylococcus epidermidis clinical isolate 20-1 assessed as inhibition of bacterial growth incubated for 7 days by alamar blue assay; format: functional; details: clinical isolate 20-1, 168 h, time 7 day
Staphylococcus aureus [15] = assay: Antibacterial activity against vancomycin intermediate Staphylococcus aureus ATCC700699 assessed as inhibition of bacterial growth incubated for 7 days by alamar blue assay; format: functional; details: ATCC700699, 168 h, time 7 day
Staphylococcus aureus [16] = assay: as §2, with “histopathological change” for “inflammatory cell infiltration”, “heart” for “liver”; format: functional, organism-based
Staphylococcus aureus [17] = assay: Antibacterial activity against methicillin resistant Staphylococcus aureus clinical isolate 20-2 assessed as inhibition of bacterial growth incubated for 7 days by alamar blue assay; format: functional; details: clinical isolate 20-2, 168 h, time 7 day
Staphylococcus aureus [18] = assay: as §2, with “pigment deposition” for “inflammatory cell infiltration”, “spleen” for “liver”; format: functional, organism-based
[19] = Cytotoxicity against African green monkey Vero cells incubated for 48 hrs by MTT assay; format: toxicity, cell-based, Chlorocebus sabaeus
Staphylococcus aureus [20] = assay: as §2, with “congestion” for “inflammatory cell infiltration”, “spleen” for “liver”; format: functional, organism-based
Staphylococcus aureus [21] = assay: Inhibition of protein synthesis in Staphylococcus aureus ATCC 29213 by translation assay; format: functional, organism-based
Staphylococcus aureus [22] = assay: Antibacterial activity against Linezolid resistant Staphylococcus aureus clinical isolate 20-2 assessed as inhibition of bacterial growth incubated for 7 days by alamar blue assay; format: functional; details: clinical isolate 20-2, 168 h, time 7 day
Staphylococcus aureus [23] = assay: as §2, with “kidney” for “liver”; format: functional, organism-based
[24] = system: Staphylococcus epidermidis; assay: Antibacterial activity against Staphylococcus epidermidis ATCC12228 assessed as inhibition of bacterial growth incubated for 18 hrs by microdilution broth assay; format: functional

## CC(=O)NC[C@H]1CN(c2ccc(N3CCOCC3)c(F)c2)C(=O)O1 [LINEZOLID]
Cell membrane [1]
  Activity: Active
Staphylococcus aureus [2]
  MIC: 1 µg/mL (≈ 2.96 µM)
Staphylococcus aureus [3]
  inhibition: Active
[4]
  MIC: 0.5 µg/mL (≈ 1.48 µM)
Enterococcus faecalis
  MIC: 0.5 µg/mL (≈ 1.48 µM)
Staphylococcus aureus [5]
  Activity: Active
Staphylococcus aureus [6]
  MIC: 8 µg/mL (≈ 23.7 µM)
[7]
  MIC: 0.8 µg/mL (≈ 2.37 µM)
Staphylococcus aureus [8]
  MIC: 8 µg/mL (≈ 23.7 µM)
Staphylococcus aureus [9]
  Activity: Active
Enterococcus
  MIC: 2 µg/mL (≈ 5.93 µM)
Bacillus subtilis
  MIC: > 64 µg/mL
Staphylococcus aureus [10]
  inhibition: Active
Cell membrane [11]
  Activity: Active
[12]
  fAUC: 5260 ng·h/mL
Staphylococcus aureus [13]
  Activity: Active
[14]
  MIC: 0.5 µg/mL (≈ 1.48 µM)
Staphylococcus aureus [15]
  MIC: 1 µg/mL (≈ 2.96 µM)
Staphylococcus aureus [16]
  Activity: Active
Staphylococcus aureus [17]
  MIC: 1 µg/mL (≈ 2.96 µM)
Staphylococcus aureus [18]
  Activity: Active
[19]
  IC50 at 48 h: > 64 µg/mL
Staphylococcus aureus [20]
  Activity: Active
Staphylococcus aureus [21]
  IC50: 1.1 µg/mL (≈ 3.26 µM)
Staphylococcus aureus [22]
  MIC: 8 µg/mL (≈ 23.7 µM)
Staphylococcus aureus [23]
  Activity: Active
[24]
  MIC: 2 µg/mL (≈ 5.93 µM)
